Assay results taken from US20230127839A1, “COMPOUNDS AND COMPOSITIONS FOR TREATING CONDITIONS ASSOCIATED WITH STING ACTIVITY” (IFM Due, Inc., priority 2019, published 2023).
pEC50: −log10 of the molar value.

Molecular target: T1, hSTING (Homo sapiens, UniProt Q86WV6, G230A/H232R/R293Q/R71H)
T1 construct: host or cells: THP1-Dual KO-IFNAR2 cells
Experiment: STING reporter assay (luciferase) in THP1-Dual KO-IFNAR2 cells stimulated with 2'3'cGAMP
Type: cell-based
Settings: 2'3'cGAMP 15 μM, 24 h, luciferase reporter activity
Method: STING pathway activation by the compounds described herein is measured using THP1-Dual™ cells (KO-IFNAR2).
THP1-Dual™ KO-IFNAR2 Cells (obtained from invivogen) are maintained in RPMI, 10% FCS, 5 ml P/S, 2 mM L-glut, 10 mM Hepes, and 1 mM sodium pyruvate.
Compounds are spotted in empty 384 well tissue culture plates (Greiner 781182) by Echo for a final concentration of 0.0017-100 μM. Cells are plated into the TC plates at 40 μL per well, 2×10E6 cells/mL. For activation with STING ligand, 2′3′cGAMP (MW 718.38, obtained from Invivogen), is prepared in Optimem media.
The following solutions are prepared for each 1×384 plate: • Solution A: 2 mL Optimem with one of the following stimuli: • 60 uL of 10 mM 2′3′cGAMP->150 μM stock • Solution B: 2 mL Optimem with 60 μL Lipofectamine 2000->Incubate 5 min at RT
2 mL of solution A and 2 ml Solution B is mixed and incubated for 20 min at room temperature (RT). 20 uL of transfection solution (A+B) is added on top of the plated cells, with a final 2′3′cGAMP concentration of 15 μM. The plates are then centrifuged immediately at 340 g for 1 minute, after which they are incubated at 37° C., 5% CO2, >98% humidity for 24 h. Luciferase reporter activity is then measured. EC50 values are calculated by using standard methods known in the art.
Luciferase reporter assay: 10 μL of supernatant from the assay is transferred to white 384-plate with flat bottom and squared wells. One pouch of QUANTI-Luc™ Plus us dissolved in 25 mL of water. 100 μL of QLC Stabilizer per 25 mL of QUANTI-Luc™ Plus solution is added. 50 μL of QUANTI-Luc™ Plus/QLC solution per well is then added. Luminescence is measured on a Platereader (e.g., Spectramax I3X (Molecular Devices GF3637001)).
Luciferase reporter activity is then measured. EC50 values are calculated by using standard methods known in the art.

T1 sequence (Q86WV6 whole entry R71H/G230A/H232R/R293Q): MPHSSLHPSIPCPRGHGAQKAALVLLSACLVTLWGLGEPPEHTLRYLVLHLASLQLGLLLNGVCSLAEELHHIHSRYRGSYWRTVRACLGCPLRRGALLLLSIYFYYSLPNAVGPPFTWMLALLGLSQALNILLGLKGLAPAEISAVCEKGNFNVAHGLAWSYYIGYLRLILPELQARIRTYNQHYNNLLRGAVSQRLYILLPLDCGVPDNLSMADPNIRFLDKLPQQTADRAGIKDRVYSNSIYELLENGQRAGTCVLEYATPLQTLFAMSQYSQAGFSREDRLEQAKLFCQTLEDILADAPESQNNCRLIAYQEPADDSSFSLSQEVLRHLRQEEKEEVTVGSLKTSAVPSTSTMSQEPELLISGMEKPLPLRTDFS

In the case of `O=C(Nc1cnc(N2CCN(CC(F)(F)F)CC2)c(Cl)c1)Nc1c[nH]c2ccc(F)cc12` [Compound 266, 1-(5-chloro-6-(4-(2,2,2-trifluoroethyl)piperazin-1-yl)pyridin-3-yl)-3-(5-fluoro-1H-indol-3-yl)urea], the pEC50 was 6.70 to 7.40.

`O=C(Nc1cnn(C2CCC(F)(F)CC2)c1)Nc1c[nH]c2cc(F)c(Cl)cc12` [Compound 230, 1-(5-chloro-6-fluoro-1H-indol-3-yl)-3-(1-(4,4-difluorocyclohexyl)-1H-pyrazol-4-yl)urea] showed a pEC50 of 6.00 to 6.70.

Work on `O=C(Nc1cnc(N2CCC3(CC2)CC3(F)F)c(Cl)c1)Nc1c[nH]c2ccc(Cl)cc12` [Compound 237, 1-(5-chloro-1H-indol-3-yl)-3-(5-chloro-6-(1,1-difluoro-6-azaspiro[2.5]octan-6-yl)pyridin-3-yl)urea] yielded a pEC50 of 6.70 to 7.40.

`C[C@@H]1CN(c2ncc(NC(=O)Nc3c[nH]c4ccc(Cl)cc34)cc2Cl)C[C@H](C)N1` [Compound 288, 1-(5-chloro-1H-indol-3-yl)-3-(5-chloro-6-(cis-3,5-dimethylpiperazin-1-yl)pyridin-3-yl)urea] was tested, and the pEC50 was 4.00 to 5.30.

`O=C(Nc1cnc(N2CCC3(CCCCO3)CC2)c(Cl)c1)Nc1c[nH]c2ccccc12` [Compound 281, 1-(5-chloro-6-(1-oxa-9-azaspiro[5.5]undecan-9-yl)pyridin-3-yl)-3-(1H-indol-3-yl)urea] was tested, and the pEC50 was 6.70 to 7.40.

`O=C(Nc1cnc(C2CCN(CC(F)(F)F)C2)c(Cl)c1)Nc1c[nH]c2ccc(Cl)cc12` (stereo not shown) [Compound 238, 1-(5-chloro-1H-indol-3-yl)-3-(5-chloro-6-(1-(2,2,2-trifluoroethyl)pyrrolidin-3-yl)pyridin-3-yl)urea] was tested, and the pEC50 was 6.70 to 7.40.

`O=C(Nc1cnn(C2CC(F)(F)C2)c1)Nc1c[nH]c2ccc(Cl)cc12` [Compound 215, 1-(5-chloro-1H-indol-3-yl)-3-(1-(3,3-difluorocyclobutyl)-1H-pyrazol-4-yl)urea] gave a pEC50 of 6.00 to 6.70.

Work on `O=C(Nc1cnn(CC2CCC(F)(F)CC2)c1)Nc1c[nH]c2ccc(Cl)cc12` [Compound 222, 1-(5-chloro-1H-indol-3-yl)-3-(1-((4,4-difluorocyclohexyl)methyl)-1H-pyrazo1-4-yl)urea] yielded a pEC50 of 6.00 to 6.70.

`COC1(C)CN(c2ncc(NC(=O)Nc3c[nH]c4cc(F)c(F)cc34)cc2Cl)C1` [Compound 187, 1-(5-chloro-6-(3-methoxy-3-methylazetidin-1-yl)pyridin-3-yl)-3-(5,6-difluoro-1H-indol-3-yl)urea] was tested, and the pEC50 was 6.00 to 6.70.

For `O=C(Nc1ccc(C2CC(F)(F)C2)c(F)c1)Nc1c[nH]c2ccc(Cl)cc12` [Compound 139, 1-(5-chloro-1H-indol-3-yl)-3-(4-(3,3-difluorocyclobutyl)-3-fluorophenyl)urea], the pEC50 was 6.70 to 7.40.

Work on `O=C(Nc1ccc(C2CCC(F)(F)CC2)nc1)Nc1c[nH]c2ccc(I)cc12` [Compound 192, 1-(6-(4,4-difluorocyclohexyl)pyridin-3-yl)-3-(5-iodo-1H-indol-3-yl)urea] yielded a pEC50 of 6.70 to 7.40.

`O=C(Nc1cnn(C2CCC3(CC2)CC3)c1)Nc1c[nH]c2ccc(Cl)cc12` [Compound 214, 1-(5-chloro-1H-indol-3-yl)-3-(1-(spiro[2.5]octan-6-yl)-1H-pyrazol-4-yl)urea] showed a pEC50 of 6.00 to 6.70.

`CO[C@@H]1CCCN(c2ncc(NC(=O)Nc3c[nH]c4cc(F)c(F)cc34)cc2Cl)C1` [Compound 149, (R)-1-(5-chloro-6-(3-methoxypiperidin-1-yl)pyridin-3-yl)-3-(5,6-difluoro-1H-indol-3-yl)urea] showed a pEC50 of 6.00 to 6.70.

`O=C(Nc1cnc(C2CCN(CC(F)(F)F)CC2)c(F)c1)Nc1c[nH]c2ccc(F)cc12` [Compound 270, 1-(5-fluoro-1H-indol-3-yl)-3-(5-fluoro-6-(1-(2,2,2-trifluoroethyl)piperidin-4-yl)pyridin-3-yl)urea] gave a pEC50 of 6.70 to 7.40.

`O=C(Nc1cnc(C2CCC(F)(F)CC2)c(Cl)c1)Nc1c[nH]c2ccc(O)cc12` [Compound 191, 1-(5-chloro-6-(4,4-difluorocyclohexyl)pyridin-3-yl)-3-(5-hydroxy-1H-indol-3-yl)urea] was tested, and the pEC50 was 6.00 to 6.70.

`O=C(Nc1cnc(N2CCC(F)(F)CC2)c(Cl)c1)Nc1c[nH]c2ccc(F)cc12` [Compound 193, 1-(5-chloro-6-(4,4-difluoropiperidin-1-yl)pyridin-3-yl)-3-(5-fluoro-1H-indol-3-yl)urea] showed a pEC50 of 6.70 to 7.40.

For `C[C@@H]1CN(c2ncc(NC(=O)Nc3c[nH]c4cc(F)c(F)cc34)cc2Cl)C[C@H](C)O1` [Compound 146, 1-(5-chloro-6-((2R,6S)-2,6-dimethylmorpholino)pyridin-3-yl)-3-(5,6-difluoro-1H-indol-3-yl)urea], the pEC50 was 6.70 to 7.40.

Molecule `O=C(Nc1cnc(C2CCC(F)(F)CC2)c(Cl)c1)Nc1c[nH]c2ccc(C(F)F)cc12` [Compound 159, 1-(5-chloro-6-(4,4-difluorocyclohexyl)pyridin-3-yl)-3-(5-(difluoromethyl)-1H-indol-3-yl)urea] has a pEC50 of 6.70 to 7.40.

For `O=C(Nc1ccc(N2CCC(F)(F)CC2)nn1)Nc1c[nH]c2ccccc12` [Compound 204, 1-(6-(4,4-difluoropiperidin-1-yl)pyridazin-3-yl)-3-(1H-indol-3-yl)urea], the pEC50 was 5.30 to 6.00.

Molecule `COCCN1CCN(c2ncc(NC(=O)Nc3c[nH]c4ccc(Cl)cc34)cc2Cl)CC1` [Compound 135, 1-(5-chloro-1H-indol-3-yl)-3-(5-chloro-6-(4-(2-methoxyethyl)piperazin-1-yl)pyridin-3-yl)urea] has a pEC50 of 6.00 to 6.70.

Molecule `O=C(Nc1ccc(C2CC(F)(F)C2)c(Cl)c1)Nc1c[nH]c2ccccc12` [Compound 246, 1-(3-chloro-4-(3,3-difluorocyclobutyl)phenyl)-3-(1H-indol-3-yl)urea] has a pEC50 of 6.70 to 7.40.

For `O=C(Nc1cnc(C2CC(F)(F)C2)c(F)c1)Nc1c[nH]c2ccc(Cl)cc12` [Compound 227, 1-(5-chloro-1H-indol-3-yl)-3-(6-(3,3-difluorocyclobutyl)-5-fluoropyridin-3-yl)urea], the pEC50 was 6.70 to 7.40.

For `Cc1cc(NC(=O)Nc2c[nH]c3cc(F)c(F)cc23)cnc1C1CCOCC1` [Compound 169, 1-(5,6-difluoro-1H-indol-3-yl)-3-(5-methyl-6-(tetrahydro-2H-pyran-4-yl)pyridin-3-yl)urea], the pEC50 was 6.00 to 6.70.

`O=C(Nc1cnc(N2CCC(F)(F)CC2)cn1)Nc1c[nH]c2ccccc12` [Compound 205, 1-(5-(4,4-difluoropiperidin-1-yl)pyrazin-2-yl)-3-(1H-indol-3-yl)urea] gave a pEC50 of 6.00 to 6.70.

In the case of `O=C(Nc1cnc(C2CCN(CC(F)(F)F)CC2)c(Cl)c1)Nc1c[nH]c2ccc(F)cc12` [Compound 268, 1-(5-chloro-6-(1-(2,2,2-trifluoroethyl)piperidin-4-yl)pyridin-3-yl)-3-(5-fluoro-1H-indol-3-yl)urea], the pEC50 was 6.70 to 7.40.

In the case of `Cc1cc(NC(=O)Nc2c[nH]c3ccccc23)cnc1C1CCN(CC(F)(F)F)CC1` [Compound 276, 1-(1H-indol-3-yl)-3-(5-methyl-6-(1-(2,2,2-trifluoroethyl)piperidin-4-yl)pyridin-3-yl)urea], the pEC50 was 6.00 to 6.70.

With `COCCC1CCN(c2ncc(NC(=O)Nc3c[nH]c4cc(F)c(F)cc34)cc2Cl)CC1` [Compound 177, 1-(5-chloro-6-(4-(2-methoxyethyl)piperidin-1-yl)pyridin-3-yl)-3-(5,6-difluoro-1H-indol-3-yl)urea] the pEC50 was 6.70 to 7.40.

For `O=C(Nc1cnc(C2CCC(F)(F)CC2)c(Cl)c1)Nc1c[nH]c2ccc(Cl)cc12` [Compound 157, 1-(5-chloro-1H-indol-3-yl)-3-(5-chloro-6-(4,4-difluorocyclohexyl)pyridin-3-yl)urea], the pEC50 was 6.70 to 7.40.
